According to patent US8551984B2, “Aminopyrimidines as SYK inhibitors” (Merck Sharp & Dohme Corp., priority 2009, dated 2013):

Columns and labels:
PGD2 = conditions: dosed intranasally, phase I/II study, allergic rhinitis; cited from earlier work
rhSYK = rhSYK (Homo sapiens, UniProt P43405); test: biochemical

Row | Compound | decrease in PGD2 (PGD2) | IC50 (rhSYK)
1 | Oc1cccc(Nc2ncc(F)c(Nc3cccc(O)c3)n2)c1 [Example R112] | statistically significant decrease | –
2 | Cc1cc(Nc2nccc(C(F)(F)F)n2)cc(-c2cnc(C3(O)CCC(C(=O)NCc4ccc(F)cc4)CC3)s2)c1 (stereo not shown) [Example 119-77] | – | < 0.1 µM
3 | Cc1cc(Nc2nccc(C(F)(F)F)n2)cc(-c2cnc(C3(O)CCC(C(=O)NCC#N)CC3)s2)c1 (stereo not shown) [Example 119-18] | – | < 0.1 µM
4 | COCCNC(=O)[C@H]1CC[C@](O)(c2ncc(-c3cc(C)cc(Nc4nccc(C(F)(F)F)n4)c3)s2)CC1 [Example 119-25] | – | < 0.1 µM
5 | Cc1cc(Nc2nccc(C(F)(F)F)n2)cc(-c2cnc([C@]3(O)CC[C@@H](C(=O)NCCCN4CCCC4=O)CC3)s2)c1 [Example 119-88] | – | < 0.1 µM
6 | Cc1cc(Nc2nccc(C(F)(F)F)n2)cc(-c2cnc([C@]3(O)CC[C@@H](C(=O)NCc4ccccc4)CC3)s2)c1 [Example 119-51] | – | < 0.1 µM
7 | Cc1cc(Nc2nccc(C(F)(F)F)n2)cc(-c2cnc([C@]3(O)CC[C@@H](C(=O)Nc4ccccn4)CC3)s2)c1 [Example 119-35] | – | < 0.1 µM
8 | Cc1cc(Nc2nccc(C(F)(F)F)n2)cc(-c2cnc(C3(O)CCC(C(N)=O)C3)s2)c1 (single isomer, unassigned) [Example 119-2] | – | < 0.1 µM
9 | Cc1cc(Nc2nccc(C(F)(F)F)n2)cc(-c2cnc([C@]3(O)CC[C@@H](C(=O)NCc4ccc(Cl)cc4)CC3)s2)c1 [Example 119-87] | – | < 0.1 µM
10 | Cc1cc(Nc2nccc(C(F)(F)F)n2)cc(-c2cnc([C@]3(O)CC[C@@H](C(=O)Nc4cccc(CO)c4)CC3)s2)c1 [Example 119-73] | – | < 0.1 µM
11 | Cc1cc(Nc2nccc(C(C)(C)C)n2)cc(-c2cnc(C3(O)CCC(C(N)=O)C(C)C3)s2)c1 (stereo not shown) [Example 119-109] | – | < 0.1 µM
12 | Cc1cc(Nc2ncc(F)c(C)n2)cc(-c2cnc(C3(O)CCC4(CC3)OCCO4)s2)c1 [Example 116B-1] | – | < 0.1 µM
13 | Cc1cc(Nc2nccc(C(F)(F)F)n2)cc(-c2cnc([C@]3(O)CC[C@H](CCC(N)=O)CC3)s2)c1 [Example 117-12] | – | < 0.1 µM
14 | Cc1cc(Nc2nccc(C(F)(F)F)n2)cc(-c2cnc([C@H]3CC[C@H](C(N)=O)CC3)s2)c1 [Example 117-5] | – | < 0.1 µM
15 | Cc1cc(Nc2nccc(C(F)(F)F)n2)cc(-c2cnc(C3(O)CCC(C(N)=O)C(C)C3)s2)c1 (single isomer, unassigned) [Example 119-111] | – | < 0.1 µM
16 | Cc1cc(Nc2nccc(C(F)(F)F)n2)cc(-c2cnc([C@]3(O)CC[C@@H](C(=O)Nc4ncc[nH]4)CC3)s2)c1 [Example 119-27] | – | < 0.1 µM
17 | Cc1cc(Nc2nccc(C(F)(F)F)n2)cc(-c2cnc(C3(O)CCN(c4ncccc4C(N)=O)CC3)s2)c1 [Example 117-6] | – | < 0.1 µM
18 | Cc1cc(Nc2nccc(C(F)(F)F)n2)cc(-c2cnc([C@@]3(O)CC[C@H](C(=O)Nc4cccnc4)C(C)(C)C3)s2)c1 [Example 119-136] | – | < 0.1 µM
19 | Cc1cc(Nc2nccc(C(C)C)n2)cc(-c2cnc(C3(O)CCC(C(=O)NCC#N)C(C)C3)s2)c1 (stereo not shown) [Example 119-113] | – | < 0.1 µM

Row | Compound | decrease in PGD2 (PGD2) | IC50 (rhSYK)
20 | Cc1cc(Nc2nccc(C(F)(F)F)n2)cc(-c2cnc(C3(O)CCC(C(=O)NCc4cccnc4)CC3)s2)c1 (stereo not shown) [Example 191-52] | – | < 0.1 µM
21 | Cc1cc(Nc2nccc(C(F)(F)F)n2)cc(-c2cnc([C@]3(O)CC[C@@H](C(=O)NCc4cn5ccccc5n4)CC3)s2)c1 [Example 119-94] | – | < 0.1 µM
22 | CC(=O)N(C)CCNC(=O)C1CCC(O)(c2ncc(-c3cc(C)cc(Nc4nccc(C(F)(F)F)n4)c3)s2)CC1 (stereo not shown) [Example 119-68] | – | < 0.1 µM
23 | Cc1cc(Nc2nccc(C(F)(F)F)n2)cc(-c2cnc(C3(O)CCC(C(=O)NC4CCCc5ccccc54)CC3)s2)c1 (stereo not shown) [Example 119-93] | – | < 0.1 µM
24 | Cc1cc(Nc2nccc(C(F)(F)F)n2)cc(-c2cnc([C@]3(O)CC[C@@H](CCC(N)=O)CC3)s2)c1 [Example 117-11] | – | < 0.1 µM
25 | Cc1cc(Nc2nccc(C(F)(F)F)n2)cc(-c2cnc([C@]3(O)CC[C@@H](C(=O)Nc4ccc(O)cc4)CC3)s2)c1 [Example 119-55] | – | < 0.1 µM
26 | Cc1cc(Nc2nccc(C(F)(F)F)n2)cc(-c2cnc([C@]3(O)CC[C@@H](C(=O)NC(C)C)CC3)s2)c1 [Example 119-20] | – | < 0.1 µM
27 | CC1(C)CC(O)(c2ncc(-c3cc(CO)cc(Nc4nccc(C(F)(F)F)n4)c3)s2)CCC1C(N)=O (stereo not shown) [Example 191-141] | – | < 0.1 µM
28 | Cc1cc(Nc2nccc(C(C)(C)O)n2)cc(-c2cnc(C3(O)CCC(C(N)=O)C(C)(C)C3)s2)c1 (stereo not shown) [Example 119-127] | – | < 0.1 µM
29 | Cc1cc(Nc2nccc(C(F)(F)F)n2)cc(-c2cnc([C@H]3CC[C@@H](C(N)=O)CC3)s2)c1 [Example 117-4] | – | < 0.1 µM
30 | CNC(=O)C1CCC(O)(c2ncc(-c3cc(C)cc(Nc4nccc(C(F)(F)F)n4)c3)s2)CC1 (stereo not shown) [Example 119-15] | – | < 0.1 µM
31 | Cc1cc(Nc2nccc(C(F)(F)F)n2)cc(-c2cnc(C3(O)CC(C(N)=O)C3)s2)c1 (stereo not shown) [Example 117-1] | – | < 0.1 µM
32 | Cc1cc(Nc2nccc(C(C)C)n2)cc(-c2cnc(C3(O)CCC(C(N)=O)C(C)C3)s2)c1 (stereo not shown) [Example 119-10] | – | < 0.1 µM
33 | Cc1cc(Nc2nccc(C(F)(F)F)n2)cc(-c2cnc(C(C)(O)c3ccc(C(N)=O)cc3)s2)c1 (single isomer, unassigned) [Example 117-20] | – | < 0.1 µM
34 | Cc1cc(Nc2nccc(C(F)(F)F)n2)cc(-c2cnc(C3(O)CCN(CCCC(N)=O)CC3)s2)c1 [Example 117-7] | – | < 0.1 µM
35 | Cc1cc(Nc2nccc(C(F)(F)F)n2)cc(-c2cnc(C3(O)CCC(C(=O)N4CCC(C#N)C4)CC3)s2)c1 (stereo not shown) [Example 119-37] | – | < 0.1 µM
36 | Cc1cc(Nc2nccc(C(F)(F)F)n2)cc(-c2cnc([C@]3(O)CC[C@@H](C(=O)Nc4cccnc4)CC3)s2)c1 [Example 119-36] | – | < 0.1 µM
37 | Cc1cc(Nc2nccc(C(F)(F)F)n2)cc(-c2cnc([C@]3(O)CC[C@@H](C(=O)N(C)C)CC3)s2)c1 [Example 119-17] | – | < 0.1 µM
